From US11147272B2, “Pyridone compounds and agricultural and horticultural fungicides comprising the same as active ingredients” (MITSUI CHEMICALS AGRO, INC., priority 2017, dated 2021)

Experiments:
[1] = test system: Colletotrichum orbiculare; experiment: Test Example H: Anthracnose on cucumber; conditions: Anthracnose on cucumber; 250 ppm spray, 6 to 10 days after inoculation
Alternaia brassicicola = experiment: Test Example C: Alternaria sooty spot on cabbage; type: in vivo; conditions: Alternaria sooty spot on cabbage; control value class
Description: Seeds of a test plant (cabbage variety: Shikidori) were planted and cultivated until the cotyledons extended.
<Control Value> Control value=100{1−(n/3)}

Magnaporthe grisea = experiment: whole plant or invertebrate; type: in vivo; conditions: Blast on rice; control value class
Phytophthora infestans = experiment: whole plant or invertebrate; type: in vivo; conditions: Late blight on tomato; control value class
Puccinia recondita = experiment: Test Example E: Brown rust on wheat; type: in vivo; conditions: Brown rust on wheat; control value class
[2] = test system: Blumeria graminis f. sp. hordei; experiment: Test Example D: Powdery mildew on barley; conditions: Powdery mildew on barley; control value class
Plasmopara viticola = experiment: Test Example G: Downy mildew on vine; conditions: Downy mildew on vine; 250 ppm spray, 7 to 10 days after inoculation
Botrytis cinerea = experiment: Test Example B: Gray mold on tomato; conditions: Gray mold on tomato; control value class

Structure (SMILES) | Test H control value [1] | Test C control value (Alternaia brassicicola) | Test A control value (Magnaporthe grisea) | Test F control value (Phytophthora infestans) | Test E control value (Puccinia recondita) | Test D control value [2] | Test G control value (Plasmopara viticola) | Test B control value (Botrytis cinerea)
CCn1c(-c2ccc(OC)cc2)c(C(C)(OC)C(C)C)cc(Cl)c1=O (stereo not shown) [compound 224] | L (50% or less control value) | L (50% or less control value) | L (50% or less control value) | L (50% or less control value) | H (more than 50% control value) | L (50% or less control value) | L (50% or less control value) | H (more than 50% control value)
CCn1c(-c2ccc(Br)cc2Cl)c(CC(C)C)ccc1=O [compound 225] | L (50% or less control value) | H (more than 50% control value) | L (50% or less control value) | L (50% or less control value) | H (more than 50% control value) | H (more than 50% control value) | L (50% or less control value) | H (more than 50% control value)
CCOc1cc(F)c(-c2c(C(C)(O)C(C)C)cc(Cl)c(=O)n2CC)c(F)c1 (stereo not shown) [compound 226] | H (more than 50% control value) | H (more than 50% control value) | H (more than 50% control value) | L (50% or less control value) | H (more than 50% control value) | L (50% or less control value) | L (50% or less control value) | H (more than 50% control value)
CCOc1cc(F)c(-c2c(C(C)(OC)C(C)C)cc(Cl)c(=O)n2CC)c(F)c1 (stereo not shown) [compound 227] | H (more than 50% control value) | H (more than 50% control value) | H (more than 50% control value) | L (50% or less control value) | H (more than 50% control value) | H (more than 50% control value) | H (more than 50% control value) | H (more than 50% control value)
CCOC(C)(c1cc(Cl)c(=O)n(CC)c1-c1c(F)cc(F)cc1F)C(C)C (stereo not shown) [compound 228] | H (more than 50% control value) | H (more than 50% control value) | H (more than 50% control value) | L (50% or less control value) | H (more than 50% control value) | H (more than 50% control value) | H (more than 50% control value) | H (more than 50% control value)
CCCOC(C)(c1cc(Cl)c(=O)n(CC)c1-c1c(F)cc(F)cc1F)C(C)C (stereo not shown) [compound 229] | H (more than 50% control value) | H (more than 50% control value) | H (more than 50% control value) | L (50% or less control value) | H (more than 50% control value) | H (more than 50% control value) | H (more than 50% control value) | H (more than 50% control value)
CCn1c(-c2c(F)cc(F)cc2F)c(C#N)cc(Cl)c1=O [compound 230] | L (50% or less control value) | L (50% or less control value) | L (50% or less control value) | L (50% or less control value) | L (50% or less control value) | L (50% or less control value) | H (more than 50% control value) | L (50% or less control value)
CCn1c(-c2c(F)cc(F)cc2F)c(C(O)C2CCCC2)cc(Cl)c1=O (stereo not shown) [compound 231] | H (more than 50% control value) | H (more than 50% control value) | H (more than 50% control value) | H (more than 50% control value) | H (more than 50% control value) | H (more than 50% control value) | H (more than 50% control value) | H (more than 50% control value)
CCn1c(-c2c(F)cc(F)cc2F)c(C(=O)C2CCCC2)cc(Cl)c1=O [compound 232] | L (50% or less control value) | H (more than 50% control value) | H (more than 50% control value) | L (50% or less control value) | H (more than 50% control value) | H (more than 50% control value) | L (50% or less control value) | H (more than 50% control value)
CCn1c(-c2ccc(C#N)cc2)c(C(O)C(C)C)cc(Cl)c1=O (stereo not shown) [compound 233] | L (50% or less control value) | H (more than 50% control value) | L (50% or less control value) | L (50% or less control value) | L (50% or less control value) | L (50% or less control value) | L (50% or less control value) | L (50% or less control value)
CCn1c(-c2ccc(C#N)cc2)c(C(=O)C(C)C)cc(Cl)c1=O [compound 234] | L (50% or less control value) | H (more than 50% control value) | L (50% or less control value) | L (50% or less control value) | L (50% or less control value) | L (50% or less control value) | L (50% or less control value) | L (50% or less control value)
CCn1c(-c2ccc(C#N)cc2)c(C(C)(O)C(C)C)cc(Cl)c1=O (stereo not shown) [compound 235] | L (50% or less control value) | H (more than 50% control value) | L (50% or less control value) | L (50% or less control value) | H (more than 50% control value) | L (50% or less control value) | L (50% or less control value) | L (50% or less control value)
CCn1c(-c2ccc(Br)cc2Cl)c(CC(C)C)cc(Cl)c1=O [compound 236] | L (50% or less control value) | H (more than 50% control value) | H (more than 50% control value) | L (50% or less control value) | H (more than 50% control value) | H (more than 50% control value) | L (50% or less control value) | H (more than 50% control value)
CCn1c(-c2ccc(Br)cc2Cl)c(CC(C)C)cc(Br)c1=O [compound 237] | L (50% or less control value) | H (more than 50% control value) | L (50% or less control value) | L (50% or less control value) | H (more than 50% control value) | H (more than 50% control value) | L (50% or less control value) | H (more than 50% control value)
